From patent US11274104B2, “Crystal forms of thiophene derivatives” (Tianjin Hemay Pharmaceutical Co., Ltd, priority 2018, dated 2022)

Tests used:
Format in all cases: physicochemical
[1] = Illumination stability (4500 lux, 1 month); settings: liquid chromatogram
Procedure: Crystal form II of (S)—N-[5-[1-(3-ethoxy-4-methoxyphenyl)-2-(methylsulfonyl)ethyl]-4,6-dioxo-5,6-dihydro-4H-thieno[3,4-c]pyrrole-1-yl]acetamide prepared according to the process of Example 1 was placed in a 4500 lux of illumination box for 1 month. Liquid chromatogram and DSC were tested after 1 month.

[2] = High temperature stability (40° C., 1 month)
Procedure: (§1) Crystal form II of (S)—N-[5-[1-(3-ethoxy-4-methoxyphenyl)-2-(methylsulfonyl)ethyl]-4,6-dioxo-5,6-dihydro-4H-thieno[3,4-c]pyrrole-1-yl]acetamide prepared according to the process of Example 1 was placed at 40° C. (high temperature). After 1 month, liquid chromatogram and DSC were tested.

[3] = Pressure stability (tablet press); settings: single punch tablet press, tablet 6 mm, hardness 25-30 N; DSC (FIG. 5)
Procedure: Crystal form II of (S)—N-[5-[1-(3-ethoxy-4-methoxyphenyl)-2-(methylsulfonyl)ethyl]-4,6-dioxo-5,6-dihydro-4H-thieno[3,4-c]pyrrole-1-yl]acetamide was pressed by tablet press machine with single punch. The diameter of the tablet was 6 mm and the hardness was 25-30 N. DSC test was carried out on pressed powder.

Grinding stability = settings: grinding in a glass mortar for 5 minutes
Procedure: Crystal form II of (S)—N-[5-[1-(3-ethoxy-4-methoxyphenyl)-2-(methylsulfonyl)ethyl]-4,6-dioxo-5,6-dihydro-4H-thieno[3,4-c]pyrrole-1-yl]acetamide prepared according to the process of Example 1 was ground in a glass mortar for 5 minutes. The ground samples were tested with XRPD.

Hygroscopicity (RH=80%) = assay: Hygroscopicity (RH=80%)
Procedure: Hygroscopicity of crystal form II of (S)—N-[5-[1-(3-ethoxy-4-methoxyphenyl)-2-(methylsulfonyl)ethyl]-4,6-dioxo-5,6-dihydro-4H-thieno[3,4-c]pyrrole-1-yl]acetamide was studied. Crystal form II of (S)—N-[5-[1-(3-ethoxy-4-methoxyphenyl)-2-(methylsulfonyl)ethyl]-4,6-dioxo-5,6-dihydro-4H-thieno[3,4-c]pyrrole-1-yl]acetamide was placed in a drier containing saturated ammonium chloride solution (RH=80%) until weight was balanced. The crystal form was tested with XRPD.
Crystal form II of (S)—N-[5-[1-(3-ethoxy-4-methoxyphenyl)-2-(methylsulfonyl)ethyl]-4,6-dioxo-5,6-dihydro-4H-thieno[3,4-c]pyrrole-1-yl]acetamide prepared according to the process of Example 1 was tested.

[4] = Accelerated stability (40° C., RH 75%, 1 month)
Procedure: as §1, with “placed in a stability text box” for “placed”, “and Rh=75%.” for “(high temperature).”

[5] = day 0, before storage at 40° C., liquid chromatogram
[6] = storage at 40° C., 1 month, liquid chromatogram

CCOc1cc([C@@H](CS(C)(=O)=O)N2C(=O)c3csc(NC(C)=O)c3C2=O)ccc1OC [crystal form II, (S)—N-[5-[1-(3-ethoxy-4-methoxyphenyl)-2-(methylsulfonyl)ethyl]-4,6-dioxo-5,6-dihydro-4H-thieno[3,4-c]pyrrole-1-yl]acetamide]
Relevant Substance Contents after 1 Month (%) ([1]; 4500 lux, 1 month): 0.06%
Relevant Substance Contents at Day 0 (%) ([1]; day 0, before illumination at 4500 lux): 0.06%
stability under high temperature conditions (in words) ([2]; 40° C., 1 month): good stability
Relevant Substance Contents at Day 0 (%) [2, 5]: 0.10%
Relevant Substance Contents after 1 Month (%) [2, 6]: 0.12%
pressure stability (in words) [3]: good stability
grinding stability (in words) (Grinding stability): good grinding stability
hygroscopicity (in words) (Hygroscopicity (RH=80%); RH=80%): hardly absorbed moisture
Weight Increase (Hygroscopicity (RH=80%); RH=80% (saturated ammonium chloride solution) until weight balanced, mAPI 0.497 g): -0.001 g
Moisture Absorption (%) (Hygroscopicity (RH=80%); RH=80% until weight balanced): 0%
Crystal Form after Absorbing Moisture (Hygroscopicity (RH=80%); RH=80% until weight balanced, XRPD): did not change
stability under high-temperature and high-humidity conditions (in words) ([4]; 40° C., 1 month): good stability
Relevant Substance Contents at Day 0 (%) [4, 5]: 0.11%
Relevant Substance Contents after 1 Month (%) [4, 6]: 0.11%
